Experimental data: patent US10945989B2, “Perinatal treatment with a flavonoid agonist of the TrkB receptor for BDNF rescues neurogenesis and behavior in the Ts65Dn mouse model of DS” (ALMA MATER STUDIORUM—Universita' di Bologna, priority 2017, dated 2021)

Experiments:
[1] = system: Ts65Dn and euploid mice; assay: Morris Water Maze, probe test; format: in vivo, mouse
[2] = system: NPCs from the SVZ of Ts65Dn mice; assay: Neuron maturation: cells exhibiting neuritic processes, SVZ NPCs; format: cell-based, mouse; settings: 96 h, vs standard medium
Procedure: Cells were isolated from the subventricular zone (SVZ) of the lateral ventricle and the subgranular zone (SGZ) of the hippocampal dentate gyrus (DG) of newborn (P1-P2) euploid and Ts65Dn mice. Briefly, brains were removed, the SVZ and SGZ regions were isolated and individually collected in ice-cold PIPES buffer pH 7.4. After centrifugation, tissue was digested for 10 min at 37° C. using Trypsin/EDTA 0.25% (Life Technologies) aided by gentle mechanical dissociation. Cell suspension from each individual mouse was plated onto 25 cm^2 cell-culture flask (Thermo Fisher Scientific) and cultured as floating neurospheres in medium containing basic fibroblast growth factor (bFGF, 10 ng/ml; Peprotech) and epidermal growth factor (EGF, 20 ng/ml; Peprotech) using an established protocol (Meneghini et al., 2014). […] Cell proliferation was quantified as relative luminescence units (RLU) values using Cell Titer-Glo viability assay reagent (Promega) on aVictor^3-V plate reader (PerkinElmer). […] In each experiment, five fields/well (corresponding to about 150-200 cells/well) were counted with a 60× objective by a Leica DMIRB inverted fluorescence microscope. Immunoreactive cells were counted and their percentage over total viable cells was calculated. […]

[3] = system: Ts65Dn and euploid mice; assay: Morris Water Maze, learning phase; format: in vivo, mouse
Procedure: Euploid and Ts65Dn mice received a daily subcutaneous injection (at 9-10 am) of 7,8-DHF (5.0 mg/kg in vehicle) or vehicle from postnatal day 3 (P3) to postnatal day P45-P50. […] These mice will be called here P45 mice. Mice were behaviorally tested in the 6 days that preceded the day of sacrifice (FIG. 2B).
Mice were trained in the MWM task to locate a hidden escape platform in a circular pool, using a previously used protocol (Stagni et al., 2016), that was altogether based on a published protocol (Vorhees and Williams, 2006). The apparatus consisted of a large circular water tank (1.00 m diameter, 50 cm height) with a transparent round escape platform (10 cm^2). The pool was virtually divided into four equal quadrants identified as northeast, northwest, southeast, and southwest. The tank was filled with tap water at a temperature of 22±1.0° C. Mice are more prone to undergo hypothermia than rats and in the MWM hypothermia may cause a reduction in swimming speed (livonen et al., 2003). […] This is consistent with evidence that a temperature of 22° C. is “high enough” to reduce stress and potential hypothermia and “low enough” to maintain the animals' motivation to escape the pool (Costa et al., 2010). The tank was filled with water up to 0.5 cm above the top of the platform and the water was made opaque with milk. The platform was placed in the tank in a fixed position (in the middle of the south-west quadrant). The pool was placed in a large room with various intra (squares, triangles, circles and stars) and extra-maze visual cues. Each mouse was tested in one session of 4 trial on the first day and in two sessions of 4 trials in the following 4 days with an inter-session interval of 45 min. A video camera was placed above the center of the pool and connected to a videotracking system (Ethovision 3.1; Noldus Information Technology B.V., Wageningen, Netherlands). Mice were released facing the wall of the pool from one of the following starting points: North, East, South, or West and allowed to search for up to 60 s for the platform. […] During the inter-trail time (10 s) mice were placed in an empty cage. For the learning phase, we evaluated the latency to find the hidden platform, time in periphery, percentage of time in periphery, path length, proximity to the platform, and swimming speed. Retention was assessed with one trial (probe trial), on the sixth day, 24 h after the last acquisition trial, using the same starting point for all mice. Mice were allowed to search for up to 60 s for the platform. For the probe trial, the latency of the first entrance in the former platform zone, the frequency of entrances in the former quadrant, the proximity to the former platform position (Gallagher's test), the percentage of time spent at the periphery (thigmotaxis), the swimming speed and the percentage of time spent in each quadrant were employed as measures of retention of acquired spatial preference. All experimental sessions were carried out between 9.00 am and […]. The following number of mice were tested. Untreated euploid mice: n=19; untreated Ts65Dn mice: n=14; 7,8-DHF-treated euploid mice: n=17; 7,8-DHF-treated Ts65Dn mice: n=16. Three untreated euploid mice (yielding n=16), one 7,8-DHF-treated euploid mouse (yielding n=16) and one 7,8-DHF-treated Ts65Dn mouse (yielding n=15) were excluded from MWM analysis due to thigmotaxis for a whole recording session.

[4] = dose of 5.0 mg/kg, Liu et al., 2010; cited from earlier work
[5] = Ts65Dn mice, became similar to untreated euploid mice

## O=c1cc(-c2ccccc2)oc2c(O)c(O)ccc12 [7,8-DHF, 7,8-dihydroxyflavone]
[1]; Ts65Dn mice
  percentage of time spent at the periphery (probe test): reduced in comparison with their untreated counterparts
[1]; [5]
  frequency of entrances in the former quadrant: notable increase in the frequency
  latency to enter the former platform zone: notable reduction in their latency
  proximity to the former platform position: swam closer to the former platform zone
[1]; Ts65Dn mice, vs SE quadrant only marginally significant
  percentage of time spent in quadrants: significantly more time in the former platform quadrant in comparison with the NE quadrant
[1]; euploid mice
  frequency of entrances in the former quadrant: large increase in the frequency of entrances
[1]; euploid mice, treated vs. untreated
  percentage of time spent at the periphery (probe test): reduction in the percentage of time at the periphery
[1]; euploid mice, vs NE and SE quadrants
  percentage of time spent in quadrants: significantly more time in the former platform quadrant
[2]
  doses that increased the percentage of cells exhibiting neuritic processes: higher than 0.3 μM
[3]; Ts65Dn mice
  time spent at the periphery (thigmotaxis): spent a similar time as euploid mice
[3]; Ts65Dn mice, 5.0 mg/kg P3-P45-50, save for day 3
  escape latency (learning phase): not statistically different from that of untreated euploid mice
[3]; Ts65Dn mice, day 5
  path length: shorter in comparison with their untreated counterparts
  proximity (distance from the platform): significantly reduced in comparison with their untreated counterparts
[3]; Ts65Dn mice, significant vs untreated counterparts on day 5
  percentage of time spent at the periphery: underwent a reduction
[3]; euploid mice
  time spent at the periphery (thigmotaxis): reduction in thigmotaxis
[3]; euploid mice, vs untreated, significant on day 2 only
  escape latency (learning phase): latency was reduced
[4]
  toxic effects: no toxic effects
